# US11261429B2, “Enriched and expanded human cord blood stem cells for treatment of hematological disorders” (ICAHN SCHOOL OF MEDICINE AT MOUNT SINAI, priority 2013, dated 2022)
# “Also recorded” adds a separate entry of the source.
# Assays:
# CD34+CD90+ cells = assay: Cell cycle analysis by BrdU labeling; type: cell-based, human
# Experimental: The cell cycle status of the cultured CD34+CD90+ cells was assessed using the FITC-BrdU Kit (BD Pharmingen) according to the manufacturer's instructions. CB CD34+ cells cultured for 7 days under control conditions in the presence of VPA were subsequently pulsed with BrdU for 2.5 hours. […] After permeabilization, cells were treated with 30 μg of DNAse for 30 minutes at 37° C. and then stained with an FITC-conjugated anti-BrdU antibody and 7AAD. The cell cycle status of CD34+CD90+ gated cells was then documented using a FAC-SCanto II Flow Cytometer with FACSDiva software (BD Biosciences).
# NSG mice [1] = assay: Homing assay of re-isolated CD34+ cells in NSG mice; type: in vivo; settings: 16 and 48 hours after infusion, versus control conditions
# Experimental: The homing of re-isolated CD34+ cells (5×10^5/mouse) after treatment under control conditions or with VPA was performed as previously described (Shivtiel et at, “CD45 Regulates Homing and Engraftment of Immature Normal and Leukemic Human Cells in Transplanted Immunodeficient Mice,” Exp. Hematol. 39(12):1161-1170 (2011), which is hereby incorporated by reference in its entirety). The recipient NSG mice were purchased from the Jackson Laboratory and sublethally irradiated (300 cGy) 4 hours prior to infusion of the re-isolated CD34+ cells via the tail vein. Sixteen and 48 hours after their infusion, BM cells were harvested from 2 femurs and 2 tibias from each recipient mouse and analyzed by flow cytometry for the presence of human CD34+ cells using a human CD34-APC mAb. The homing of these cell populations was determined by quantitating the number of CD34+ cells per 10^6 acquired events in the BM of the recipient mice. […] Eight NSG mice received CD34+ cells cultured under control conditions, and 10 mice received CD34+ cells from VPA-containing cultures.
# HDAC2 = assay: HDAC protein levels in CB-MNCs, Western blot densitometry; type: cell-based, human; settings: 24 hr, SCR 8 μM, C433 80 μM, VPA 1.25 mM
# HDAC3 = assay: as above; type: cell-based, human; settings: 24 hr, SCR 8 μM, C433 80 μM, VPA 1.25 mM
# From the text: (§2) Cellular proteins were separated by SDS-PAGE using Novex (Invitrogen) and transferred by iBlot (Invitrogen). The membranes were probed with mAbs against individual histone deacetylases (HDAC1, HDAC2, HDAC3, HDAC4, HDAC5, HDAC6, and β-actin; Cell Signaling Technology) and developed using a chemiluminescence system with HRP-conjugated secondary antibodies (Amersham Biosciences) according to the manufacturer's instructions.
# HDAC5 = assay: as above; type: cell-based, human; settings: 24 hr, SCR 8 μM, C433 80 μM, VPA 1.25 mM
# From the text: as §2
# HDAC6 = assay: as above; type: cell-based, human; settings: 24 hr, SCR 8 μM, C433 80 μM, VPA 1.25 mM
# From the text: as §2
# NANOG = assay: Pluripotency protein expression in re-isolated CD34+ cells, mAb staining and flow cytometry; type: cell-based, human; settings: 7 days
# Experimental: (§1) PCs and re-isolated, cultured CD34+ cells from control cultures and cultures containing VPA were fixed with methanol-free formaldehyde (2.8%) for 10 minutes at 37° C., briefly chilled on ice, and permeabilized with 100% ice-cold methanol. Cells were further incubated on ice for 20 minutes and blocked with incubation buffer (PBS containing 0.5% BSA) for 10 minutes and stained for SOX2 and OCT4 with an FITC-conjugated mAb or isotype controls for an hour at room temperature. Cells were also stained with a rabbit mAb for NANOG, followed by an FITC-conjugated anti-rabbit secondary antibody, and cells were washed and analyzed by flow cytometry.
# OCT4 = assay: as above; type: cell-based, human; settings: 7 days
# Experimental: as §1
# SOX2 = assay: as above; type: cell-based, human; settings: 7 days
# Experimental: as §1
# NSG mice [2] = assay: Limiting dilution analysis of SCID-repopulating cells (SRC) in NSG mice; type: in vivo; settings: for No. of mice with human cell chimerism/total number of mice transplanted: 12 to 13 weeks
# Experimental: The frequency of human SRCs in PCs and the progeny of an equivalent number of CD34+ cells that were expanded under control conditions or in the presence of VPA were analyzed by limiting dilution analysis as described previously (Boitano et al., “Aryl Hydrocarbon Receptor Antagonists Promote the Expansion of Human Hematopoietic Stem Cells,” Science 329:1345-1348 (2010), which is hereby incorporated by reference in its entirety). Increasing numbers of PCs (50, 250, 500, 2,500, 5,000) or the progeny of an equivalent number of PCs cultured with VPA for 7 days or under control conditions were infused into NSG mice (n=111). The data from the limiting dilution experiments were pooled and analyzed by applying Poisson statistics to the single-hit model (n=111). The frequency was calculated using L-Calc software (StemCell Technologies Inc.) and plotted using ELDA software (bioinf.wehi.edu.au/software/elda/), available at the Walter and Eliza Hall Bioinformatics Institute of Medical Research. The tog fraction of non-responding values was converted to the percentage of negative mice using the following formula: percentage of negative mice=e log fraction.
# NSG mice [3] = assay: Teratoma formation assay in NSG mice; type: in vivo; settings: 1×10^6 re-isolated CD34+ cells subcutaneously, 8 weeks
# Experimental: CD34+ cells (1×10^6) re-isolated from control cultures or cultures containing VPA or a similar number of ES cells were suspended in 100 μl of PBS. These cells were mixed with an equal volume of ice-cold Matrigel and injected subcutaneously into the right hind limb of three NSG mice per group (re-isolated CD34+ cells from control cultures, VPA-treated cultures, and ES cells). The mice were observed weekly for teratoma formation and sacrificed after 8 weeks. Teratomas were dissected, fixed, sectioned, and stained with H&E and examined morphologically (O'Connor et al., “Functional Assays for Human Embryonic Stem Cell Pluripotency,” Methods Mol Biol. 690:67-80 (2011), which is hereby incorporated by reference in its entirety).
# CB CD34+ cells = assay: Ex vivo expansion of CB CD34+ cells with HDACIs, phenotypic analysis by flow cytometry; type: cell-based, human; settings: VPA alone (no cytokines), SF, 7 days after 16 h priming
smiles,measurement,setting,value
"CCCC(CCC)C(=O)O [VPA, valproic acid]","percent CD34+CD90+ cells, flow cytometric analysis (FIG. 4A)","CD34+CD90+ cells; SF culture with VPA 7 days, one of 3 representative experiments",82.9%
same,CD34+CD90+ cells in G0/G1,"CD34+CD90+ cells; day 7, BrdU pulse 2.5 hours",23.2%±13.8%
same,CD34+CD90+ cells in G2/M,"CD34+CD90+ cells; day 7, BrdU pulse 2.5 hours",18.0%±1.2%
same,CD34+CD90+ cells in S phase,"CD34+CD90+ cells; day 7, BrdU pulse 2.5 hours",29.4%±7.9%
same,homing of CD34+ cells to the marrow of NSG mice,NSG mice [1],increased horning of CD34+ cells
same,HDAC2 expression relative to b-ACTIN (%),HDAC2,45.8 ± 25.2%
same,HDAC3 expression relative to b-ACTIN (%),HDAC3,11.4 ± 12.4%
same,HDAC5 expression relative to b-ACTIN (%),HDAC5,21.4 ± 10.7%
same,HDAC6 expression relative to b-ACTIN (%),HDAC6,54.2 ± 7.9%
same,percentage of CD34+ cells expressing NANOG,NANOG; SC cultures,5.6 ± 1.4^A %
same,percentage of CD34+ cells expressing NANOG,NANOG; SF cultures,57.6 ± 6.8^A %
same,percentage of CD34+ cells expressing OCT4,OCT4; SC cultures,8.2 ± 1.7^A %
same,percentage of CD34+ cells expressing OCT4,OCT4; SF cultures,32.9 ± 3.8^A %
same,percentage of CD34+ cells expressing SOX2,SOX2; SC cultures,3.9 ± 1.9^A %
same,percentage of CD34+ cells expressing SOX2,SOX2; SF cultures,23.1 ± 6.5^A %
same,No. of SRCs generated per 1 × 10^6 CD34+ starting cells,"NSG mice [2]; Poisson statistics, VPA 7 days","32,258"
same,increase in the number of SRCs compared with cells cultured under control conditions,NSG mice [2]; VPA treatment versus control cultures,299 fold
same,increase in the number of SRCs compared with PCs,NSG mice [2]; VPA treatment versus primary CB CD34+ cells,36 fold
same,No. of mice with human cell chimerism/total number of mice transplanted,NSG mice [2]; progeny of 50 CD34+ cells,8/10
same,No. of mice with human cell chimerism/total number of mice transplanted,NSG mice [2]; progeny of 250 CD34+ cells,10/10
same,No. of mice with human cell chimerism/total number of mice transplanted,NSG mice [2]; progeny of 500 CD34+ cells,8/8
same,No. of mice with human cell chimerism/total number of mice transplanted,"NSG mice [2]; progeny of 2,500 CD34+ cells",7/7
same,No. of mice with human cell chimerism/total number of mice transplanted,"NSG mice [2]; progeny of 5,000 CD34+ cells",7/7
same,teratoma formation,NSG mice [3],did not form teratomas; also recorded: neither control nor VPA treated CD34+ cells formed teratomas
same,fold expansion of CD34+ cells per CB collection,CB CD34+ cells,9.0 fold
same,fold expansion of CD34+CD90+ cells per CB collection,CB CD34+ cells,486 fold
